From patent US20250034139A1, “AMINE COMPOUNDS HAVING ANTI-INFLAMMATORY, ANTIFUNGAL, ANTIPARASITIC, AND ANTICANCER ACTIVITY” (PHARMA CINQ, LLC, priority 2013, published 2025)
In brackets after ≈: the same amount, converted by molar mass.

How the values were obtained:
[1] = system: Cryptococcus neoformans (serotype D); experiment: Example K: Cryptococcus neoformans (serotype D) growth inhibition; type: cell-based; conditions: Cryptococcus deneoformans, OD of 48 hour reading, 37° C., tested 4 to 60 μM, XLfit
Method: Cryptococcus neoformans (serotype D) were plated in 96 well plates with 144 μl/well of 8×10e5 CFU/ml in YM growth medium. Diluted compounds were then added to each well with concentration ranged from 4 to 60 μM as final concentration in duplicates. The plates were inoculated at 37° C. for total of 48 hours. Two readings of OD at 600 nm were measured after 30 and 48 hour treatments.
• 1. Pick a single colony of Cryptococcus from the YM agar plate using the inoculum loop and inoculate into a 125 ml flask containing 25 ml of YM growth medium. • 2. Incubate at 37° C. with shaking at 220 rpm for 24 hours with loosen lid to allow air in and facilitates growth. • 3. Examine an aliquot of the culture under a microscope for yeast cell morphology and lack of bacterial contamination. • 4. Dilute the overnight culture with YM medium at 1:100 dilution and count the number of cells as 1×10^6 cfu/ml. • 5. Make a final concentration of cells suspension at 8×10^5 cfu/ml in YM medium. • 6. Plate 144 μl/well of 8×10^5 cfu/ml cell suspension on 96-well plates. Part-II: Cryptococcus Growth Inhibition Testing with Compounds • 1. From 10 mM DMSO stock solutions, make serial dilutions of compounds to 0.1, 0.2, 0.3, 0.5, 1.0 and 1.5 mM solution. • 2. Add 6 ul each of diluted compound solutions per well in duplicates. The final concentrations were 0, 4, 8, 12, 20, 40 and 60 micromolar. • 3. Incubated all plates at 37° C. overnight (30 hours) with 150 rpm shaking. • 4. Read absorbance at OD600 for each plate. • 5. Leave plates in 37° C. incubator for another day and read absorbance at OD600 again at 48 hours to ensure the inhibitory effect of the compounds. • 6. Calculated the % inhibition and IC50 of each compound against untreated cells.

[2] = system: Trichophyton rubrum; experiment: Example J: Trichophyton rubrum growth inhibition, scoring by eye; type: cell-based; conditions: Trichophyton rubrum, 144 h; 6 days at 30° C., tested 6 to 40 μM; read-out: MIC, μM (maximum inhibition concentration, scoring by eye)
Method: Trichophyton grown on two agar plates were collected by scraping into 10 ml saline and filtered through 8 μm filters. […] This experiment included some active compounds from previous experiment and added several untested compounds. […] Following table listed the maximum inhibition concentration (MIC) based on scoring by eye. Scrape frozen Trichophyton culture from ATCC vial and suspended in 100 μl PDB, and then plate on a PDA plate. Incubate plate at 30 C for 4 days. The plate was covered almost full. […] Take OD of collected solution at 520 nm and 600 nm: […] Part-II: […] Add 6 μl each of diluted compound solutions per well in triplicates. […] Wrap the plates with […] incubate all plates at 30° C. for 6 days. • Take picture of the plates on KODAK imager with 17 captures of 1.5 sec/capture for total of 25.5 second exposure.

[3] = system: THP-1 cells; experiment: Example D: LPS-triggered THP-1 cell death assay, acute/5-hour and chronic/48-hour; type: cell-based, Human; conditions: 10 ng/ml LPS, 0.1 μM test compound, 48 hours
Method: Compounds of the invention were tested at 0.1 μM versus AC in the LPS-triggered THP-1 cell death assay. Both acute/5-hour and chronic/48-hour phases of cell death were assessed. Compounds were screened in batches with DMSO as the negative control and AC as the high activity control.

[4] = system: Hep3B hepatocellular carcinoma cell line; conditions: for Tumor Weight (g) Mean ± SEM: Hep3B in liver of nude mice, day 35, oral daily, sorafenib 30 mg/kg/day alone, 20 mg/kg/day in combination, AC 180, AK and AB 360 μmol/kg/day; for Body Weight (g) Mean ± SEM Initial: in vivo; for Complete Regressions: number of mice with no viable tumor at necropsy, day 35, doses as Table 35
Source text: Hepatocellular carcinoma (HCC) is one of the most common and lethal cancers worldwide, generally developing as a consequence of chronic infection with hepatitis B or C viruses. […] The Hep3B hepatocellular carcinoma cell line is human in origin, contains genetic traces of hepatitis B virus, and can be injected into the livers of athymic immunocompromised mice as a model of primary HCC. […] The test compounds were all administered orally.
The test compounds of the invention were suspended in 1% hydroxypropylmethylcellulose (HPMC) using a sonicator equipped with a microtip to minimize particle size and maximize uniformity of the suspension. Sorafenib was dissolved in a 1:1 mixture of Cremophor EL and ethanol by heating to 60° C. for 1 minute and then sonicating for 10 minutes to fully suspend. Female nude mice (Hsd:athymic nude-Foxn1^nu) weighing approximately 25 g were anesthetized with ketamine/xylazine, laid on their backs, and a 1-cm transverse incision made through the skin and peritoneum of the left upper abdomen. The mediant lobe of the liver was exposed by applying gentle pressure on the abdomen. 1.5-2×10^6 Hep3B cells in a 20 μL volume of matrigel:EMEM serum free (1:1) were slowly implanted by subserosal injection into the liver using a 27-gauge needle on a Hamilton syringe. The liver was allowed to slip back into place, and the peritoneum was closed with sutures and wound clips.
Mice were divided into 8 groups of mice each following injection of cells; the vehicle/vehicle group comprised 12 mice and the other groups comprised 8 or 9. Mice began receiving oral test drug treatments 48 hr post cell injection.
The test compounds, sorafenib, and vehicles were administered by oral gavage. Sorafenib or its cremophor-containing vehicle were given in the morning and compounds of the invention or their HPMC vehicle was administered in the afternoon each day; all animals received two gavage treatments of drugs or appropriate vehicles daily.

[5] = system: Candida albicans strain 3153; experiment: Example H: Candida albicans growth inhibition (OD 600 nm); type: cell-based; conditions: for MIC: Candida albicans, 3153, 24 hrs at 30° C., YPD, XLfit, read-out: MIC (uM) (99% of inhibition of fungal growth); for IC50: Candida albicans, 3153, read-out: IC50 (uM) (50% inhibition of fungal growth), 24 hrs at 30° C., YPD, XLfit
Summary of the method: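 Growth inhibition computed as % versus DMSO control from OD600 after ~24 h at 30° C. Inoculum: washed overnight YPD culture of strain 3153 at 3.5×10^4 CFU/ml in YPD; final compound concentrations 0, 5, 10, 16, 22, 30, 40 μM, duplicate wells.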

[6] = system: 4T1 mouse mammary breast cancer cells; experiment: Example O: syngeneic 4T1 breast cancer growth in Balb/C mice; type: in vivo; conditions: 4T1 in female Balb/C mice
Method: Cancer models in mice generally either involve syngeneic murine tumors in immunocompetent mice or xenografts of human tumors in immunocompromised mice. […] Mice received test compounds by oral gavage in 1% hydroxypropylmethylcellulose from day 2 until day 30. Tumor growth was assessed by caliper measurements twice per week and tumor weight after necropsy, and body weight was also monitored. Treatment groups were: • 1. […] HPMC) • 2. CI (120 μmol/kg/day) • 3. BA (120 μmol/kg/day) • 4. CP (120 μmol/kg/day) • 5. CQ (120 μmol/kg/day) • 6. AA (120 μmol/kg/day) • 7. AC (120 μmol/kg/day)

[7] = system: 4T1 murine breast cancer cells; experiment: Example S: in vitro anticancer screen, 4T1 cells, Wst1; type: cell-based, mouse; conditions: Mus musculus, 4T1, 18 h, 18 hr, Wst1
Summary of the method: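 4T1 cells seeded at 1×10^4/well were exposed to compound at 1 μM or 5 μM for 18 hr after plating. Wst1 tetrazolium dye was then added for about 2 hr and absorbance read at 450 nm (reference 630 nm). Values are percent survival relative to vehicle-treated cells.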

[8] = system: PC-3 prostate cancer cells; experiment: Example T: sensitisation of PC-3 cells to doxorubicin, oxaliplatin, paclitaxel or vincristine, Wst1; type: cell-based, human; conditions: PC-3 cells, 72 hours
[9] = system: PC3 human prostate cancer cells; experiment: Example S: in vitro anticancer screen, PC-3 cells, Wst1; type: cell-based; conditions: Homo sapiens, PC-3; 1.5 μM, approximately 20 hours, Wst1; read-out: PC-3, percent of cancer cell survival relative to vehicle treated cells
Summary of the method: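 PC-3 cells, 2×10^4 cells/well, exposed ~20 h to vehicle or compound at 0.4, 0.5 or 2.5 μM as specified per compound. Wst1 dye added for 2 h; absorbance 450 nm (reference 630 nm), triplicates. Values are percent cell survival versus vehicle-treated cells.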

CCCCCCOc1ccc(CNc2ncnc3ccccc23)cc1 [AB, N-[4-(Hexyloxy)benzyl]quinazolin-4-amine]
IC50 ([1]; read-out: IC50 (concentration for 50% of inhibition)): 1.15 µM
MIC ([1]; read-out: MIC (concentration for maximum-99% of inhibition)): 40.8 µM (≈ 13.7 µg/mL)
MIC [2]: 18 µM (≈ 6.04 µg/mL)
Viable cell percent change, Chronic/48-hour, Mean [3]: 56.56%
Tumor Weight (g) Mean ± SEM [4]: 0.88 ± 0.33 g
Body Weight (g) Mean ± SEM Initial [4]: 26.2 ± 0.7 g
Complete Regressions [4]: 2
MIC [5]: 33 µM (≈ 11.1 µg/mL)
IC50 [5]: 11 µM

CCCCCCOc1ccc(OCCNc2ccnc3ccccc23)cc1 [BA, N-{2-[4-(Hexyloxy)phenoxy]ethyl}quinolin-4-amine]
Final Tumor Volume ([6]; 120 μmol/kg/day oral gavage, day 2 to day 30): 641 ± 159 mm^3
Δ BW % ([6]; 120 μmol/kg/day oral, final vs initial body weight): −2.7%
Final Body Weight ([6]; 120 μmol/kg/day oral, final, in g (unit assumed)): 24.8 ± 2.0
Initial Body Weight ([6]; 120 μmol/kg/day oral, initial (baseline)): 25.5 ± 1.5 g
viability at 1 µM ([7]; 1 μM, read-out: 4T1 1 μM, percent of cancer cell survival relative to vehicle treated cells): 71.7%
viability at 5 µM ([7]; 5 μM, read-out: 4T1 5 μM, percent of cancer cell survival relative to vehicle treated cells): 220%
viability at 1.5 µM ([8]; Homo sapiens, compound 1.5 μM alone, Wst1, vehicle = 100, read-out: No Chemo: percent cell survival): 42.4%
Doxorubicin 3.5 μM: percent cell survival ([8]; compound 1.5 μM + doxorubicin 3.5 μM, chemotherapy agent alone normalized to 100%): 167.3%
Oxaliplatin 100 μM: percent cell survival ([8]; compound 1.5 μM + oxaliplatin 100 μM, chemotherapy agent alone normalized to 100%): 146.7%
Paclitaxel 50 μM: percent cell survival ([8]; compound 1.5 μM + paclitaxel 50 μM, chemotherapy agent alone normalized to 100%): 145.7%
Vincristine 100 nM: percent cell survival ([8]; compound 1.5 μM + vincristine 100 nM, chemotherapy agent alone normalized to 100%): 148.7%
Viable cell percent change, Chronic/48-hour, Mean [3]: 41.79%
viability at 1.5 µM [9]: 42.4%
MIC [5]: 96.7 µM (≈ 35.3 µg/mL)
IC50 [5]: 34.6 µM

CNC(=O)c1cc(Oc2ccc(NC(=O)Nc3ccc(Cl)c(C(F)(F)F)c3)cc2)ccn1 [Sorafenib, sorafenib, reference compound]
Tumor Weight (g) Mean ± SEM [4]: 0.81 ± 0.20 g
Body Weight (g) Mean ± SEM Initial [4]: 25.9 ± 0.7 g
Complete Regressions [4]: 1
